Assay results reported in patent publication US5604227A, “Pyridazinedione compounds useful in treating neurological disorders” (Imperial Chemical Industries PLC, priority 1991, dated 1997).
Read-outs that look alike come from different tables or passages of the source.

Assays:
[1] = system: NMDA receptor; conditions: reference antagonists, general statement; cited from earlier work
[2] = target: glycine receptor of the NMDA receptor complex (Cavia porcellus, UniProt A0A286XML8); assay: glutamate-evoked contractions of the guinea pig ileum (Test B); format: cell-based; conditions: 100 micromolar glutamate-evoked contractions, compound 5 min before glutamate
Excerpt: (§1) The actions of compounds according to the invention as antagonists at the glycine receptor of the NMDA receptor complex can be shown by one or more standard tests such as the [^3 H]-glycine binding assay (Test A), by functional assays in vitro such as tests for measuring glutamate-evoked contractions of the guinea pig ileum (Test B) and/or tests for measuring antagonism of NMDA-induced evoked response in hippocampal slices (Test C), and by tests in vivo such as ischemia induced by carotid occlusion in the gerbil model (Test D).
For glutamate-evoked contractions of the guinea pig ileum, the methodology is as described previously (Luzzi et. al., Br. J. Pharmacol., 95, 1271-1277 (1989)). The longitudinal muscle and associated myenteric plexus are removed and placed in oxygenated modified Krebs-Henseleit solution (118 millimolar NaCl, 4.7 millimolar KCl, 2.5 millimolar CaCl, 1.2 millimolar KH2 PO4, 25 millimolar NaHCO3, and 11 millimolar glucose). Tissues are suspended on glass rods in organ baths under a resting tension of 0.5 g. After an initial depolarization with 80 millimolar potassium ion to remove possible blockade of the NMDA receptor channel complex with magnesium, twitch responses are evoked with 100 micromolar glutamate. Isometric mechanical responses are recorded. Tissues are equilibrated for at least 2 hours prior to addition of compounds.
A dose response curve for the effect of the unknown on the magnitude of the glutamate-evoked contractions is generated. Glutamate-evoked contractions are generated at 20 minute intervals, with the test compound added 5 minutes before the glutamate. The magnitude of the contraction with each dose of the unknown is expressed relative to the control, the third contraction evoked by 100 micromolar glutamate alone in the same tissue bath. The IC50 is obtained from a least-squares regression of a logit-log transformation of the data.
After the last contraction for the dose-response curve, 100 micromolar glycine is added to the bath 10 minutes after the previous addition of glutamate. […]

[3] = target: glycine receptor of the NMDA receptor complex; assay: [3H]-glycine binding assay (Test A); design: species or system rat (Sprague-Dawley); conditions: [3H]-glycine 20 nM, rat cortex/hippocampus membranes, pH 7.1, 30 min, 4° C.
Excerpt: as §1
In the [^3 H]-glycine binding assay, neuronal synaptic membranes are prepared from adult (about 250 g) male Sprague-Dawley rats. Freshly dissected cortices and hippocampi are homogenized in 0.32M sucrose (110 mg/mL). Synaptosomes are isolated by centrifugation (1000 xg, 10 min), the supernatant is pelleted (20,000 xg, 20 min) and resuspended in double-distilled water. The suspension was centrifuged for 20 minutes at 8,000 xg. The resulting […] and bully coat are washed twice (48,000 xg, 10 mins, resuspension in double-deionized water). The final pellet is quickly frozen (dry ice/ethanol bath) under double-deionized water and stored at -70° C.
On the day of the experiment, thawed synaptic membranes are homogenized with a Brinkmann Polytron (tm, Brinkmann Instruments, Westbury, N.Y.) tissue homogenizer in 50 millimolar tris(hydroxymethyl)aminomethane citrate, pH 7.1. The membranes are incubated with 0.04% Sufact-AMPS X100 (tm, Pierce, Rockford, Ill.) in buffer for 20 minutes at 37° C. and washed six times by centrifugation (48,000 xg, 10 min) and resuspended in buffer. The final pellet is homogenized at 200 mg wet weight/mL of the buffer for the binding assay.
For [^3 H]-glycine binding at the N-methyl-D-aspartate receptor, 20 nanomolar [^3 H]-glycine (40-60 Ci/mmol, New England Nuclear, Boston, Mass.) is incubated with the membranes suspended in 50 millimolar tris (hydroxymethyl)aminomethane citrate, pH 7.1 for 30 minutes at 4° C. […] Radioactivity is estimated by liquid scintillation counting. […]

[4] = system: neuronal damage in the hippocampus; assay: gerbil ischemic model, bilateral carotid occlusion (Test D); format: in vivo, Mongolian gerbils; conditions: 10 mg/Kg ip, pre- and post-occlusion (e.g. 45 min before and 5 min after)
Excerpt: as §1
When testing in vivo using the gerbil ischemic model, adult female Mongolian gerbils (50-70 g) are anesthetized with 2 to 3 % halothane. The bilateral common carotid arteries at the neck are exposed and occluded with microaneurysm clips. After 10 min (unless specified), the clips are removed and the blood flow through the carotid arteries is restored and the skin is sutured. Test compounds are administered intraperitoneally both pre- and post-occlusion, for example 45 minutes before and 5 minutes after occlusion of the carotid arteries. Sham-operated animals are treated in the same manner except that the arteries are not clamped. Gross behavioral observations along with motor activity are recorded for 2 hr on the first (24 hr) day following the occlusion. After 4 days, subjects are sacrificed (decapitation), brains are removed, fixed, sectioned and stained with hematoxylin/eosin and cresyl violet.
The brain sections are rated for neuronal damage in the hippocampus using the following rating scale:
1=slight damage (up to 25%)--restricted to CA1/subiculum border
2=moderate damage (up to 50%)--obvious damage, restricted to less than half of CA1 field
3=marked damage (up to 75%)--involving greater than half of CA1 field
4=damage extending beyond CA1 field
Sections (7 micron) are evaluated from each brain. […] The average brain damage rating score for each group is recorded, and the damage scores of the drug treated group are compared to the vehicle-treated group using Wilcoxon-Rank Sum test. […]

[5] = system: NMDA receptor; assay: hippocampal slice test (HST), antagonism of NMDA-induced evoked response (Test C); format: cell-based, rat (Sprague-Dawley); conditions: 5 μM, 0 Mg++
Excerpt: as §1
The characterization of a compound as a glycine antagonist in the hippocampal slice test (HST) is dependent on (1) the ability of the compound to inhibit NMDA receptor-mediated synaptic transmission in hippocampal slices and (2) the subsequent reversal of these inhibitory effects by D-serine.
The procedure for the HST is as follows. Transverse hippocampal slices are obtained from male Sprague-Dawley rats weighting 80-150 gm. […]
For the electrophysiology part of the experiments, bipolar tungsten stimulating electrodes are positioned in the stratum radiatum of the CA3 cell body region of the hippocampus and a single-barrel glass microelectrode filled with Krebs-Ringer solution is positioned in the CA1 cell body region. Low frequency stimulation is then applied to area CA3 which evokes a primary population spike (PS) recorded from CA1. […]

c1ccc(C2(N3CCCCC3)CCCCC2)cc1 [PCP]
reversal of the inhibition by D-serine [1]: not reversed by D-serine

O=c1[nH][nH]c(=O)c2c(O)c3c(Cl)cc(Cl)cc3nc12 [Example 4, 7,9-Dichloro-2,3-dihydro-10-hydroxypyridazino[4,5-b]quinoline-1,4-dione]
IC50 [2]: 2300 nM | IC50 [3]: 80 nM | neuroprotection (relative to sham-operated control) [4]: Over 70%

C[C@]12N[C@H](Cc3ccccc31)c1ccccc12 [MK-801]
reversal of the inhibition by D-serine [1]: not reversed by D-serine

O=c1[nH][nH]c(=O)c2c(O)c3ccc(Cl)cc3nc12 [Example 2, 7-Chloro-2,3-dihydro-10-hydroxypyridazino[4,5-b]quinoline-1,4-dione]
IC50 [2]: 2100 nM | IC50 [3]: 240 nM | neuroprotection (relative to sham-operated control) [4]: Over 70% | antagonism in the hippocampal slice test (inhibition of secondary population spikes) [5]: antagonist | reversal of the inhibition by D-serine [5]: reversed by D-serine

NC1CCN(O)C1=O (stereo not shown) [HA-966]
inhibition of the secondary PSs [1]: inhibit the secondary PSs | reversal of the inhibition by D-serine [1]: reversed by D-serine

O=c1[nH][nH]c(=O)c2c(O)c3ccc([N+](=O)[O-])cc3nc12 [Example 11, 2,3-Dihydro-10-hydroxy-7-nitropyridazino[4,5-b]quinoline-1,4-dione]
IC50 [2]: 86000 nM | IC50 [3]: 8500 nM | neuroprotection (relative to sham-operated control) [4]: over 60%

O=C(O)c1cc(O)c2ccc(Cl)cc2n1 [7-chlorokynurenic acid]
inhibition of the secondary PSs [1]: inhibit the secondary PSs | reversal of the inhibition by D-serine [1]: reversed by D-serine

NC(CCCP(=O)(O)O)C(=O)O (stereo not shown) [APV]
reversal of the inhibition by D-serine [1]: not reversed by D-serine

O=C(O)C1CN(CCCP(=O)(O)O)CCN1 (stereo not shown) [CPP]
reversal of the inhibition by D-serine [1]: not reversed by D-serine
